Measured values taken from patent publication US11873267B2, “Functionalized N,N-dialkylamino phenyl ethers and their method of use” (Temple University-Of The Commonwealth System of Higher …, priority 2016, dated 2024).
Where a name gives a salt, the structure may show the parent alone.

Columns and labels:
[1] = system: Gaucher patient fibroblasts (Coreill Institute, GM08760); experiment: GPN induced calcium release phenotypic assay on Gaucher patient fibroblasts; type: cell-based, human; conditions: for Maximal % Change in GPN Response: ratio of GPN response with drug / without drug x 100; for EC50: Homo sapiens, Fibroblast, 12-point dilution curve in triplicate
[2] = system: Wild-type patient fibroblasts (Coriell Institute, GM 005659); conditions: wild type patient cells
Method: Gaucher patient fibroblasts (Coreill Institute, GM08760) were cultured in EMEM with 15% FBS, 1% Pen/Strep at 37° C./5% CO2. Wild-type patient fibroblasts (Coriell Institute, GM 005659) were used as a control cell line. Cells are plated with a MultiFlo dispenser (800 cells/well in 30 μL of complete growth media) in black/clear bottom 384-well plates and cultured for 24 hours at 37° C., 5% CO2. Compounds of the disclosure are then added to the cells (12 point dose response curve, 150 nM to 30 uM final compound concentration using a 5.0 μL of a 7× stock solution (1.05 μM to 210 μM)) under sterile conditions and continued in culture for 72 hours at 37° C., 5% CO2. […] The data from each well were normalized with basal fluorescence by dividing the maximum fluorescence over the entire real time reading by the initial basal fluorescence.
Cells (800 cells/well) were plated with a MultiFlo dispenser (BioTek) and cultured for 24 h at 37° C., 5% CO2. […] Cells were loaded with Screen Quest™ Fluo-8 No Wash Calcium mix (ATT Bio) and analyzed for changes in response to GPN. The data from each well were normalized with basal fluorescence by dividing the maximum fluorescence over the entire real time reading by the initial basal fluorescence. […] EC50 and Hill slope values are determined using a four-parameter dose-response (variable slope) equation in GraphPad Prism.

[3] = system: β-Glucocerebrosidase (GCase); experiment: β-Glucocerebrosidase (GCase) activity in lysates of compound-treated Gaucher patient fibroblasts (4-MUG substrate); type: cell-based, human; conditions: 10 μM, 3 days, Gaucher patient fibroblast lysates, no change = 1
Method: Cellular lysates were prepared from compound treated cells and non-treated cells were included as a control. β-Glucocerebrosidase (GCase) activity was directly measured from lysates prepared from treated cells using a fluorescent substrate 4-methylumbelliferyl-β-D-glucopyranoside (MUG). Cells were washed 3× with phosphate-buffered saline (PBS) and detached by scraping. After centrifugation, The pellets were frozen on dry ice, thawed and lysed in McIlvaine (MI) buffer (100 mM sodium citrate, 200 mM sodium phosphate dibasic, 0.25% sodium taurocholate, and 0.1% Triton X-100, pH 5.2 containing protease inhibitors). Lysates are incubated with 3.0 mM 4-methylumbeliferryl-β-glucoside (4-MUG) substrate in MI buffer (50 μL) at 37° C. for 60 minutes. Reactions were stopped by addition of 0.4 M glycine, pH 10.6 (70 μL). Fluorescence was measured on a Clariostar plate reader (BMG Labtech) for one second per well using 355 nm excitation and 460 nm emission. Total protein was determined with the Bradford protein assay kit (BioRad) according to the manufacturer's instructions. The GCase activity measured after compound treatment is normalized to non-treated cells and expressed as relative activity where no change in GCAse activity is equal 1 (FIG. 3).

[4] = Gaucher patient cells, 72 hours compound treatment

Row | Compound | Maximal % Change in GPN Response [1, 4] [%] | EC50 [1, 4] [µM] | increase in calcium response compared with 0.1% DMSO treated Gaucher patient cells ([1]; 72 hours compound treatment, GPN response) [%] | activity to increase lysosomal calcium signaling (Prestwick Chemical Library screen) ([1]; Gaucher patient cells, 72 hours, confirmed in triplicate) | increase in GPN-induced calcium response [2] | GCase activity relative to non-treated cells [3]
1 | CC(C)C(C(=O)c1ccc(OCCN(C)C)cc1)c1ccccc1 (stereo not drawn) [Example 11, 1-(4-(2-Dimethylaminoethoxy)-phenyl)-3-methyl-2-phenylbutan-1-one] | 54 | 3.3 | – | – | – | –
2 | CC/C(=C(\c1ccccc1)c1ccc(OCCN(C)C)cc1)c1ccccc1 [Tamoxifen, reference compound] | – | – | 200±50 | active compound | 40+/−20% | –
3 | C=C(C)c1ccccc1C(CCCC)C(=O)c1ccc(OCCN(C)C)cc1 (stereo not drawn) [Example 17] | 275 | 2.2 | – | – | – | –
4 | C=Cc1ccccc1C(CCCC)C(=O)c1ccc(OCCN(C)C)cc1 (stereo not drawn) [Example 15, 1-(4-(2-(dimethylamino)ethoxy)phenyl)-2-(2-vinylphenyl)hexan-1-one] | 217 | 2.7 | – | – | – | –
5 | CCCCC(=Cc1ccc(OCCN(C)C)cc1)c1ccccc1 (stereo in doubt) [Example 4, (Z)—N,N-dimethyl-2-(4-(2-phenylhex-1-en-1-yl)phenoxy)ethan-1-amine trifluoroacetate] | 56 | 7.2 | – | – | – | –
6 | CC/C(=C\c1ccccc1)c1ccc(OCCN(C)C)cc1 [Example 9, (E)-N,N-Dimethyl-2-(4-(1-phenylbut-1-en-2-yl)phenoxy)ethan-1-amine] | 53 | 3 | – | – | – | –
7 | CC/C(=C\c1ccccc1)c1ccc(OCCN2CCCC2)cc1 [Example 10, (E)-1-(2-(4-(1-Phenylbut-1-en-2-yl)phenoxy)ethyl)pyrrolidine] | 48 | 1.1 | – | – | – | –
8 | CCC(Cc1ccc(OCCN(C)C)cc1)c1ccccc1 (stereo not drawn) [MC210155, N,N-Dimethyl-2-(4-(2-phenylbutyl)phenoxy)ethan-1-amine trifluoroacetate] | 154 | 4.8 | – | – | – | increase in GCase activity
9 | CC/C(=C/c1ccc(OCCN(C)C)cc1)c1ccc([N+](=O)[O-])cc1 [Example 6, (Z)—N,N-Dimethyl-2-(4-(2-(4-nitrophenyl)but-1-en-1-yl)phenoxy) ethan-1-amine] | 47 | 4.3 | – | – | – | –
10 | CCCCC(C(=O)c1ccc(OCCN(C)C)cc1)c1ccccc1 (stereo not drawn) [MC150235, 1-(4-(2-(Dimethylamino)ethoxy)phenyl)-2-phenylhexan-1-one] | 87 | 2.4 | – | – | – | increase in GCase activity
11 | CCCCC(C(=O)c1ccc(OCCN(C)C)cc1)c1ccccc1CC (stereo not drawn) [Example 16, 1-(4-(2-(dimethylamino)ethoxy)phenyl)-2-(2-ethylphenyl)hexan-1-one] | 138 | 0.65 | – | – | – | –
12 | CC/C(=C\c1ccc(OCCN(C)C)cc1)c1ccccc1 [Example 1, (E)-N,N-Dimethyl-2-(4-(2-(phenyl)but-1-en-1-yl)phenoxy)ethan-1-amine] | 70 | 6 | – | – | – | –
13 | C/C(=C/c1ccc(OCCN2CCCC2)cc1)c1ccccc1 [Example 5, (Z)-1-(2-(4-(2-phenylprop-1-en-1-yl)phenoxy)ethyl)pyrrolidine] | 72 | 2.1 | – | – | – | –
14 | CC/C(=C\c1ccc(OCCN2CCCC2)cc1)c1ccccc1 [Example 3, (E)-1-(2-(4-(2-phenylbut-1-en-1-yl)phenoxy)ethyl)pyrrolidine] | 175 | 5.3 | – | – | – | –
15 | CC(C)CCC(C(=O)c1ccc(OCCN(C)C)cc1)c1ccccc1 (stereo not drawn) [Example 13] | 191 | 1.5 | – | – | – | –
16 | CCCCC(C(=O)c1ccc(OCCN(C)C)cc1)c1ccccc1C(C)C (stereo not drawn) [Example 18, 1-(4-(2-(Dimethylamino)ethoxy)phenyl)-2-(2-isopropylphenyl)hexan-1-one] | 233 | 0.33 | – | – | – | –
17 | CC(C)CC(C(=O)c1ccc(OCCN(C)C)cc1)c1ccccc1 (stereo not drawn) [Example 14, 1-(4-(2-(Dimethylamino)ethoxy)phenyl)-4-methyl-2-phenylpentan-1-one] | 108 | 0.7 | – | – | – | –
18 | CC/C(=C/c1ccc(OCCN(C)C)cc1)c1ccccc1 [Example 2, (Z)—N,N-Dimethyl-2-(4-(2-(phenyl)but-1-en-1-yl)phenoxy)ethan-1-amine trifluoroacetate] | 62 | 14.1 | – | – | – | –
